The values below come from US10683297B2 (Sunshine Lake Pharma Co., Ltd., priority 2017, dated 2020).

The nature of data set [1]: Compound stability in human liver microsomes. It counts as in vitro ADME. Conditions: for half-life at 5 μM: human liver microsomes 0.5 mg protein/mL, compound 5 μM, NADPH 1.0 mM, pH 7.4, 37° C., read-out: Human T1/2; for CLint scaled at 5 μM: liver microsomes, pH 7.4, in vivo CLint extrapolated from human liver microsome incubation. The procedure, abridged:
(§1)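 Compounds (5 μM) incubated at 37 °C with human or rat liver microsomes (0.5 mg protein/mL) and 1.0 mM NADPH in 100 mM phosphate buffer pH 7.4, 0.05% DMSO, in duplicate. Sampled 0–60 min, quantified by LC/MS/MS as % of time zero; CLint extrapolated.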

Data set [2] can be described thus: Compound stability in rat liver microsomes. Conditions: for CLint scaled at 5 μM: liver microsomes, pH 7.4, in vivo CLint extrapolated from rat liver microsome incubation; for half-life at 5 μM: read-out: Rat T1/2. It counts as in vitro ADME. The procedure, abridged:
as §1

The next data set deals with T1, JAK1 (h) (Homo sapiens, UniProt P23458).
T1 construct: purchased Millipore UK Ltd (assays performed there as a service)
T1 sequence (P23458 whole entry): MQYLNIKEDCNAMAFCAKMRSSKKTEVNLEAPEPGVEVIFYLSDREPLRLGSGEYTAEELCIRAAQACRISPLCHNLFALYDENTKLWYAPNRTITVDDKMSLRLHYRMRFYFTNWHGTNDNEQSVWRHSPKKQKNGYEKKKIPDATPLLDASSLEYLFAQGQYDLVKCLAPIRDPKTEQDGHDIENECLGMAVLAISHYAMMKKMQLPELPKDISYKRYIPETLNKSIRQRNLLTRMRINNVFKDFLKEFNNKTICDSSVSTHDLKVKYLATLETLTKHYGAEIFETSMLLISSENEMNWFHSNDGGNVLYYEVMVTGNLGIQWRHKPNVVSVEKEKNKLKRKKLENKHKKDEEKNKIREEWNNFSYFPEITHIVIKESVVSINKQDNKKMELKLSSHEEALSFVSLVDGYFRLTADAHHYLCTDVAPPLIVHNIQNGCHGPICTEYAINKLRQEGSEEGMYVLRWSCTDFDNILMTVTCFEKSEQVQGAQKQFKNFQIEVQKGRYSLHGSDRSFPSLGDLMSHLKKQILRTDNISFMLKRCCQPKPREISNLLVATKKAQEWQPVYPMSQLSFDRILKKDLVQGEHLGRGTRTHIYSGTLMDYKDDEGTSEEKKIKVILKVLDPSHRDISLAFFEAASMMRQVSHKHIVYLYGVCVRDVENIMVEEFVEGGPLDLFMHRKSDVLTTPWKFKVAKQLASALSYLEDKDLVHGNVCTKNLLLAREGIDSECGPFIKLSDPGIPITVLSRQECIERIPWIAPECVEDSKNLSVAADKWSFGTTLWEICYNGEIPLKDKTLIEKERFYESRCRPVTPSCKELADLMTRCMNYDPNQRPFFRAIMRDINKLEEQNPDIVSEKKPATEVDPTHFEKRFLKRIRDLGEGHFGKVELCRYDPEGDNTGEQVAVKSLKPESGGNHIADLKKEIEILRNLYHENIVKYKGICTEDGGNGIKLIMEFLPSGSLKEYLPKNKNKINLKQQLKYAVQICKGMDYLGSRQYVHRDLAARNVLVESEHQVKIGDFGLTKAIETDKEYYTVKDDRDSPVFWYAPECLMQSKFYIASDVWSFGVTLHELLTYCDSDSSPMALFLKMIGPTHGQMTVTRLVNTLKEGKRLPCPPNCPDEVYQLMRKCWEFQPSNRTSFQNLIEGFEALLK
Nature of the data set: JAK1 (h) kinase assay. In kind it is biochemical. Conditions: [γ-33P-ATP] 10 μM or KM values; 40 minutes at room temperature. The procedure, abridged:
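Radiometric filter-binding assay: human JAK1 incubated 40 min at room temperature in 20 mM Tris/HCl pH 7.5, 0.2 mM EDTA, 500 μM peptide substrate, 10 mM Mg acetate, with [γ-33P]ATP at 10 μM or KM. Reaction stopped with phosphoric acid; P30 filtermat scintillation counting.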

[3] abbreviates: rat liver microsomes 0.5 mg protein/mL, compound 5 μM, NADPH 1.0 mM, pH 7.4, 37° C.

For `CCC1CN(c2ccc(C#N)cn2)CCC1Nc1nc(Nc2ccn3c(C)cnc3c2)ncc1Cl` (stereo not shown) [Example 2, 6-(4-((5-chloro-2-((3-methylimidazo[1,2-a]pyridin-7-yl)amino)pyrimidin-4-yl)amino)-3-ethylpiperidin-1-yl)nicotinonitrile], the results for the half-life at 5 μM in data set [1] and in data set [2] (setting [3]) were 36.2 min and 47.4 min, respectively. For the same molecule, the figures for the CLint scaled at 5 μM in data set [1] and in data set [2] were 48.1 mL/min/kg and 52.4 mL/min/kg, respectively. Moreover, at JAK1 (h), the IC50 (commonly the midpoint of a concentration-inhibition curve) stood at 1 nM.
Turning to `CCC1CN(c2ccc(C#N)nn2)CCC1Nc1nc(Nc2ccn3c(C)cnc3c2)ncc1Cl` (stereo not shown) [Example 3, 6-(4-((5-chloro-2-((3-methylimidazo[1,2-a]pyridin-7-yl)amino)pyrimidin-4-yl)amino)-3-ethylpiperidin-1-yl)pyridazine-3-carbonitrile], in data set [1], the half-life at 5 μM amounted to 56.3 min and the CLint scaled (commonly the rate of metabolic loss divided by the concentration) at 5 μM is 30.9 mL/min/kg. Besides, the “Rat T1/2” value in data set [2] (setting [3]) was “∞”. The concentration for half-maximal inhibition (IC50) on JAK1 (h) is 0.6 nM.
`Cc1cnc2cc(Nc3ncc(Cl)c(NC4CCN(c5ccc(C#N)nn5)CC4)n3)ccn12` [Example 12, 6-(4-((5-chloro-2-((3-methylimidazo[1,2-a]pyridin-7-yl)amino)pyrimidin-4-yl)amino)piperidin-1-yl)pyridazine-3-carbonitrile]: the half-life at 5 μM in data set [1] was determined as 117 min; in data set [2] (setting [3]), 186 min. The figures for the intrinsic clearance (CLint scaled) at 5 μM in data set [1] and in data set [2] were 14.9 mL/min/kg and 13.4 mL/min/kg, respectively. Further, on JAK1 (h), the midpoint of inhibition, the IC50, lay at 0.4 nM.
The corresponding values for `N#Cc1ccc(N2CCC(Nc3nc(Nc4ccn5c(C(F)F)nnc5c4)ncc3Cl)CC2)nc1` [Example 30, 6-(4-((5-chloro-2-((3-(difluoromethyl)-[1,2,4]triazolo[4,3-a]pyridin-7-yl)amino)pyrimidin-4-yl)amino)piperidin-1-yl)nicotinonitrile] are 126 min, 80.5 min, 13.8 mL/min/kg, 30.8 mL/min/kg and 0.9 nM.
At JAK1 (h), `Cc1nc2cc(Nc3ncc(Cl)c(NC4CCN(c5ccc(C#N)cn5)CC4)n3)ccn2n1` [Example 32, 6-(4-((5-chloro-2-((2-methyl-[1,2,4]triazolo[1,5-a]pyridin-7-yl)amino)pyrimidin-4-yl)amino)piperidin-1-yl)nicotinonitrile] had a half-inhibitory concentration (IC50) of 0.5 nM.
As for `CC(C)(O)c1nc2cc(Nc3ncc(Cl)c(NC4CCN(c5ccc(C#N)cn5)CC4)n3)ccn2n1` [Example 39, 6-(4-((5-chloro-2-((2-(2-hydroxypropan-2-yl)-[1,2,4]triazolo[1,5-a]pyridin-7-yl)amino)pyrimidin-4-yl)amino)piperidin-1-yl)nicotinonitrile], the half-life at 5 μM in data set [1] stood at 121 min; in data set [2] (setting [3]) it was 246 min. The CLint scaled at 5 μM in data set [1] is 14.4 mL/min/kg; in data set [2], 10.1 mL/min/kg. Besides, the half-inhibitory concentration (IC50) on JAK1 (h) amounted to 0.6 nM.
Turning to `CC(C)(O)c1nnc2cc(Nc3ncc(Cl)c(NC4CCN(c5ccc(C#N)cn5)CC4)n3)ccn12` [Example 40], the half-life at 5 μM in data set [1] turned out to be 361 min; in data set [2] (setting [3]) it was 55.6 min. Besides, the intrinsic clearance (CLint scaled) at 5 μM in data set [1] was 4.8 mL/min/kg; in data set [2], 44.7 mL/min/kg. The concentration for half-maximal inhibition (IC50) against JAK1 (h) was less than 0.3 nM.
The corresponding values for `Cn1cnc2cc(Nc3ncc(Cl)c(NC4CCN(c5ccc(C#N)cn5)CC4)n3)ccc21` [Example 46, 6-(4-((5-chloro-2-((1-methyl-1H-benzo[d]imidazol-5-yl)amino)pyrimidin-4-yl)amino)piperidin-1-yl)nicotinonitrile] are 63.1 min, 76.3 min, 27.5 mL/min/kg, 32.5 mL/min/kg and less than 0.3 nM.
With `Cn1nnc2cc(Nc3ncc(Cl)c(NC4CCN(c5ccc(C#N)nn5)CC4)n3)ccc21` [Example 47, 6-(4-((5-chloro-2-((l-methyl-1H-benzo[d][1,2,3]triazol-5-yl)amino)pyrimidin-4-yl)amino)piperidin-1-yl)pyridazine-3-carbonitrile], the half-life at 5 μM in data set [1] was found to be 108 min; in data set [2] (setting [3]), 27.8 min. Also, the intrinsic metabolic clearance (CLint scaled) at 5 μM in data set [1] is 16.1 mL/min/kg; in data set [2], 89.4 mL/min/kg. Further, at JAK1 (h), the half-inhibitory concentration (IC50) is less than 0.3 nM.
The corresponding values for `Cc1nc2cc(Nc3ncc(Cl)c(NC4CCN(c5ccc(C#N)cn5)CC4)n3)ccc2n1C` [Example 48, 6-(4-((5-chloro-2-((1,2-dimethyl-1H-benzo[d]imidazol-5-yl)amino)pyrimidin-4-yl)amino)piperidin-1-yl)nicotinonitrile] are 37 min, 55.7 min, 46.9 mL/min/kg, 44.6 mL/min/kg and less than 0.3 nM.
The corresponding values for `CC(C)(O)c1nc2cc(Nc3ncc(Cl)c(NC4CCN(c5ccc(C#N)nn5)CC4)n3)ccn2n1` [Example 55, 6-(4-((5-chloro-2-((2-(2-hydroxypropan-2-yl)-[1,2,4]triazolo[1,5-a]pyridin-7-yl)amino)pyrimidin-4-yl)amino)piperidin-1-yl)pyridazine-3-carbonitrile] are 1370 min, 340 min, 1.3 mL/min/kg, 7.3 mL/min/kg and 0.9 nM.
The corresponding values for `CC(O)Cc1nc2cc(Nc3ncc(Cl)c(NC4CCN(c5ccc(C#N)nn5)CC4)n3)ccn2n1` (stereo not shown) [Example 56, 6-(4-((5-chloro-2-((2-(2-hydroxypropyl)-[1,2,4]triazolo[1,5-a]pyridin-7-yl)amino)pyrimidin-4-yl)amino)piperidin-1-yl)pyridazine-3-carbonitrile] are 47.7 min, 48.8 min, 36.5 mL/min/kg, 50.9 mL/min/kg and 0.5 nM.
Take `N#Cc1ccc(N2CCC(Nc3nc(Nc4ccc5c(c4)nnn5CC4CC4)ncc3Cl)CC2)nc1` [Example 60, 6-(4-((5-chloro-2-((1-(cyclopropylmethyl)-1H-benzo[d][1,2,3]triazol-5-yl)amino)pyrimidin-4-yl)amino)piperidin-1-yl)nicotinonitrile]: the half-life at 5 μM in data set [1] was 15.6 min; in data set [2] (setting [3]), 3.4 min. In addition, the CLint scaled at 5 μM in data set [1] is 112 mL/min/kg; in data set [2], 732 mL/min/kg. The IC50 against JAK1 (h) is 0.4 nM.
In the case of `CC(O)Cn1cnc2cc(Nc3ncc(Cl)c(NC4CCN(c5ccc(C#N)cn5)CC4)n3)ccc21` (stereo not shown) [Example 61, 6-(4-((5-chloro-2-((1-(2-hydroxypropyl)-1H-benzo[d]imidazol-5-yl)amino)pyrimidin-4-yl)amino)piperidin-1-yl)nicotinonitrile], the half-life at 5 μM in data set [1] amounted to 128 min; in data set [2] (setting [3]), 28.8 min. Also, the CLint scaled at 5 μM in data set [1] was 13.6 mL/min/kg; in data set [2], 86.2 mL/min/kg. Also, on JAK1 (h), the IC50 was less than 0.3 nM.
The corresponding values for `CC(C)(O)Cc1nc2ccc(Nc3ncc(Cl)c(NC4CCN(c5ccc(C#N)cn5)CC4)n3)cn2n1` [Example 67, 6-(4-((5-chloro-2-((2-(2-hydroxy-2-methylpropyl)-[1,2,4]triazolo[1,5-a]pyridin-6-yl)amino)pyrimidin-4-yl)amino)piperidin-1-yl)nicotinonitrile] are 127 min, 30.8 min, 13.7 mL/min/kg, 80.6 mL/min/kg and 0.6 nM.
The corresponding values for `CC(C)(O)c1cnc2cc(Nc3ncc(Cl)c(NC4CCN(c5ccc(C#N)cn5)CC4)n3)ccn12` [Example 68, 6-(4-((5-chloro-2-((3-(2-hydroxypropan-2-yl)imidazo[1,2-a]pyridin-7-yl)amino)pyrimidin-4-yl)amino)piperidin-1-yl)nicotinonitrile] are 10.6 min, 19 min, 164 mL/min/kg, 130 mL/min/kg and 0.3 nM.
The corresponding values for `CC(C)(O)Cn1nnc2cc(Nc3ncc(Cl)c(NC4CCN(c5ccc(C#N)cn5)CC4)n3)ccc21` [Example 69, 6-(4-((5-chloro-2-((1-(2-hydroxy-2-methylpropyl)-1H-benzo[d][1,2,3]triazol-5-yl)amino)pyrimidin-4-yl)amino)piperidin-1-yl)nicotinonitrile] are 496 min, 170 min, 3.5 mL/min/kg, 14.6 mL/min/kg and 0.5 nM.
As to `CC(C)(O)c1cn2ccc(Nc3ncc(Cl)c(NC4CCN(c5ccc(C#N)cn5)CC4)n3)cc2n1` [Example 70, 6-(4-((5-chloro-2-((2-(2-hydroxypropan-2-yl)imidazo[1,2-a]pyridin-7-yl)amino)pyrimidin-4-yl)amino)piperidin-1-yl)nicotinonitrile], the half-life at 5 μM in data set [1] turned out to be 10.3 min; in data set [2] (setting [3]), 4.71 min. The intrinsic clearance (CLint scaled) at 5 μM in data set [1] was 168 mL/min/kg; in data set [2] it was 528 mL/min/kg. The molecule also displayed a half-inhibitory concentration (IC50) against JAK1 (h) of 0.5 nM.
